Source: patent US6171786A, “Methods for preventing multidrug resistance in cancer cells” (priority 1996, dated 2001)
“Also recorded” adds a separate entry of the source.

Assays:
[1] = tested on: MDR1 expression; test: Induction of MDR1 expression by agents that increase intracellular Ca2+; assay type: cell-based, human; conditions: H9 cells, 10 hrs
Experimental: H9 cells were seeded into each well of 6-well plates (10^5 cells/well in 3 mL of RPMI-1640 medium/10% fetal bovine serum/2 mM L-glutamine/100 U/mL penicillin and 100 μg/mL streptomycin). Experimental cultures were treated with either the calcium-specific ionophore A23187 or an inhibitor of Ca^2+ -dependent ATPase, thapsigargin. Cells were incubated with 10 μM A23187 or 10 μg/mL thapsigargin for 10 hrs at 37° C., 5% CO2 in a humidified atmosphere. Negative control cultures were incubated as above without the addition of either A23187 or thapsigargin.
After each incubation was complete, steady-state levels of MDR1- and β2 -microglobulin mRNA (internal standard) were determined by RT-PCR as described above in Example 4. PCR products were then analyzed in 7.5% polyacrylamide gel electrophoresis and autoradiographed. […] The absence of the MDR1-specific band and presence of the β2 -microglobulin specific band was consistent with the results on uninduced H9 cells shown above in Examples 4 and 5 and FIGS. 7A through 7F.

[2] = tested on: MDR1 expression (P-glycoprotein); test: Induction of MDR1 expression by cytotoxic drugs (dye efflux, UIC2, cDNA-PCR); assay type: cell-based, human; conditions: for maintenance of MDR1 expression after removal of drug: K562 subpopulation
Experimental: (Commercially-available kits (for example, from GIBCO/BRL, Gaithersburg, Md.) can be advantageously modified for making cDNA using random hexamers.) PCR is then performed using the following primers: […]
(where β2 M represents β2 microglobulin). PCR was performed for β2 M experiments under a regime consisting of 1 cycle comprising denaturation at 94° C. for 3 minutes, primer annealing at 60° C. for 30 seconds, and primer extension at 72° C. for 1 minute, followed by 19 cycles comprising denaturation at 94° C. for 30 seconds, primer annealing at 60° C. for 30 seconds, and primer extension at 72° C. for 1 minute, followed by a final cycle comprising denaturation at 94° C. for 30 seconds, primer annealing at 60° C. for 30 seconds, and primer extension at 72° C. for 5 minutes. MDR1 cDNA sequences were amplified using the identical protocol as for β2 M, but extending the amplification from 19 cycles to 25 cycles. In addition, the cDNA-PCR amplification protocol contained the following modifications: (i) Taq DNA polymerase was added to the PCR mixtures after initial heating of the samples to 94° C. (ii) The yield of the β2 -microglobulin-specific band, obtained after 22-28 cycles of PCR, was used as the primary criterion for equalizing the starting amounts of the cDNA templates in different preparations, in order to account for differential RNA degradation in cells subjected to different types of treatment. ^32 P-labeled PCR products were detected by autoradiography.
In particular PKC is activated by treatment with Ara-C. Therefore, experiments were performed to test whether Ara-C, which is not transported by P-glycoprotein, would have any effect on P-glycoprotein function in K562 leukemia cells.
Also assayed was whether drug-induced MDR1 expression was maintained after cytotoxic drug treatment. […] At different times, MDR1 expression in the surviving cells was analyzed by dye efflux and immunofluorescence labeling with UIC2 (FIG. 3C) or by cDNA-PCR (FIG. 4E).

[3] = tested on: MRP expression; test: Inhibition of MRP mRNA expression in H-9 cells (cDNA-PCR); assay type: cell-based, human; set-up: Inhibition of MRP expression: key to the marks not given beside the values
Experimental: Cells were plated in 6-well Falcon tissue culture plates at 3,300 cells per well, and incubated in the appropriate concentrations of drugs. Each of the protein kinase inhibitors to be tested were added at their appropriate final concentrations, and the cells then incubated for 10 hours at 37° C. under an atmosphere of 5% CO2.
PCR was performed using the following primers: […]
(where β2 M represents β2 microglobulin). PCR was performed for β2 M experiments under a regime consisting of 1 cycle comprising denaturation at 94° C. for 3 minutes, primer annealing at 60° C. for 30 seconds, and primer extension at 72° C. for 1 minute, followed by 19 cycles comprising denaturation at 94° C. for 30 seconds, primer annealing at 60° C. for 30 seconds, and primer extension at 72° C. for 1 minute, followed by a final cycle comprising denaturation at 94° C. for 30 seconds, primer annealing at 60° C. for 30 seconds, and primer extension at 72° C. for 5 minutes.
H-9 cells were used to analyze the effect of various protein kinase inhibitors on the expression of the multidrug resistance associated protein MRP (Grant et al., ibid.).

[4] = tested on: MDR1 expression; test: Inhibition of cytotoxic drug-induced MDR1 expression by inhibitors of NF-κB activation; assay type: cell-based, human; conditions: H9
[5] = tested on: MDR1 expression; test: Inhibition of AraC-induced MDR1 expression by phospholipase C inhibitors (RT-PCR); assay type: cell-based, human; conditions: U73122 1 and 10 μM; H9, 25 μM AraC
Experimental: The inhibitor was added 45 min. prior to the addition of Ara C. Negative control cultures were incubated as above without the addition of either AraC or U73122.
The specificity of phospholipase C-targeted inhibition of MDR1 induction by cytotoxic drugs was determined in a comparative experiment using a known inhibitor of […] phospholipase C (PC-PLC).

[6] = tested on: MDR1 expression; test: Inhibition of cytotoxic drug-induced MDR1 expression by protein kinase inhibitors (cDNA-PCR)
Experimental: (§1) Cells were plated in 6-well Falcon tissue culture plates at 3,300 cells per well, and incubated in the appropriate concentrations of drugs. Each of the protein kinase inhibitors to be tested were added at the appropriate final concentration 45 minutes prior to MDR1 induction by the addition of Ara-C or TPA, with the exception of herbimycin A, which was added 12 hours prior to Ara-C or TPA, and tyrphostins A25 and B46, which were each added 16 hours prior to MDR1 induction by the addition of Ara-C or TPA. Cells were incubated overnight (TPA) or for 10 hours (Ara-C) at 37° C./ 5% CO2 after the addition of the MDR1 inducing agents before harvesting for cDNA-PCR analysis.
In addition, the analysis of certain drugs imposed added requirements. For experiments using calphostin C, cells were incubated under direct white light illumination. For experiments using D,L-threo-sphingosine, the cell culture medium was pre-treated with the appropriate concentration of the drug for one hour at 37° C. with continuous gentle mixing. After this pretreatment, cells were resuspended in media supplemented with drug and incubated for 45 minutes as described above.
To further evaluate the capacity of protein kinase inhibitors to suppress MDR1 induction by cytotoxic drugs and PKC agonists, H-9 human T-cell leukemia cells were used in cDNA-PCR assays to examine induced MDR1 mRNA expression levels in the presence of protein kinase inhibitors.

[7] = tested on: MDR1 expression; test: Inhibition of TPA- or DOG-induced MDR1 expression; assay type: cell-based, human; conditions: H-9 cells; 32 μM erbstatin analog
Experimental: PBL were treated with 1 ng/mL TPA; H9 and K562 cells with 10 ng/mL TPA; KG1a and KG1 cells with 100 ng/mL TPA and the other cell lines with 10 ng/mL TPA.
as §1

## CNc1ccc2oc(C[C@H]3O[C@@]4(CC[C@H]3C)O[C@H]([C@H](C)C(=O)c3ccc[nH]3)[C@H](C)C[C@H]4C)nc2c1C(=O)O [A23187]
[1]; 10 μM
  MDR1 expression (RT-PCR): capable of inducing MDR1 gene expression; also recorded: a clear MDR1-specific band was detected

## Nc1ccn([C@@H]2O[C@H](CO)[C@@H](O)[C@@H]2O)c(=O)n1 [Ara-C, 1-β-D-arabinofuranosylcytosine]
[2]; EJ bladder carcinoma, 10 μM Ara-C
  MDR1 mRNA expression: activated MDR1 mRNA expression
[2]; H9 T-cell leukemia
  MDR1 mRNA expression: a clear MDR1-specific band was detected
[2]; K562, Ara-C 12-72 hours
  subpopulation of cells that effluxed Rh123: 3-17%
[2]; K562, cDNA-PCR
  MDR1 mRNA expression: dose-dependent increase in MDR1 mRNA expression
[2]; drug-free medium
  maintenance of MDR1 expression after removal of drug: up to 11 weeks
[2]; treated 3-5 days then drug-free
  maintenance of MDR1 expression after removal of drug: maintained for a least several weeks
[2]; KB-3-1 epidermoid carcinoma
  MDR1 mRNA expression: activated MDR1 mRNA expression
[2]; KG1 leukemia cells, 10 μM Ara-C
  P-glycoprotein expression: increased P-glycoprotein expression
[2]; human leukemia and solid-tumor derived cell lines, short-term exposure
  MDR1 induction: MDR1 induction, both at the mRNA and at the protein levels, was observed
[3]; 25 μM Ara-C, data not shown
  MRP expression: slight decrease in MRP expression

## Cc1ccc(S(=O)(=O)N[C@@H](Cc2ccccc2)C(=O)CCl)cc1 [N-tosyl-L-phenylalanine chloromethyl ketone]
[4]; inhibitor 25 μM
  inhibition of MDR1 induction by Adriamycin (2 μM): completely abrogate induction of MDR1 gene expression
  inhibition of MDR1 induction by Ara C (25 μM): completely abrogate induction of MDR1 gene expression; also recorded: complete suppression of AraC-induced MDR1 expression

## COc1ccc2c(c1)CC[C@@H]1[C@@H]2CC[C@]2(C)[C@@H](NCCCCCCN3C(=O)C=CC3=O)CC[C@@H]12 [U73122, 1-(6-((1β-3-methoxyestra-1,3,5(10)-trien-17-yl)amino)hexyl)-1-H-pyrrole-2,5-dione]
[5]
  inhibition of AraC-induced MDR1 mRNA: inhibited the induction of MDR1 mRNA; also recorded: reduced the steady-state levels of MDR1 mRNA

## CC(=O)Oc1ccccc1C(=O)O [aspirin, acetylsalicylic acid]
[4]; inhibitor 10 mM
  inhibition of MDR1 induction by Adriamycin (2 μM): completely abrogate induction of MDR1 gene expression
  inhibition of MDR1 induction by Ara C (25 μM): completely abrogate induction of MDR1 gene expression; also recorded: complete suppression of AraC-induced MDR1 expression

## COc1ccc2c(c[n+](C)c3c4cc5c(cc4ccc23)OCO5)c1OC [chelerythrine]
[6]
  inhibition of MDR1 induction by cytotoxic drugs: capable of inhibiting MDR1 induction by cytotoxic drugs
[6]; 5 μM chelerythrine
  prevention of MDR1 induction by chemotherapeutic drugs: prevent MDR1 induction by chemotherapeutic drugs
[6]; chelerythrine 1 μM and 5 μM, H-9
  inhibition of Ara-C induced MDR1 expression: Progressive dose-dependent inhibition
[3]; 1-5 μM
  MRP expression: capable of inhibiting MRP expression; also recorded: strongly inhibited

## COC(=O)C=Cc1cc(O)ccc1O [methyl-2,5-dihydroxycinnamate]
[7]
  inhibition of TPA-induced MDR1 expression: completely inhibited TPA-induced MDR1 expression; also recorded: inhibit MDR1 expression induced by treatment of sensitive cells with TPA
[6]; 32 μM erbstatin analog, H-9 cells
  inhibition of Ara-C induced MDR1 expression: completely inhibit Ara-C induced MDR1 expression
[3]; 32 μM
  MRP expression: capable of inhibiting MRP expression; also recorded: strongly inhibited

## S=C(S)N1CCCC1 [pyrrolidone dithiocarbamate]
[4]; inhibitor 20 μM
  inhibition of MDR1 induction by Ara C (25 μM): complete suppression of AraC-induced MDR1 expression
[4]; inhibitor 100 μM
  inhibition of MDR1 induction by Adriamycin (2 μM): completely abrogate induction of MDR1 gene expression
  inhibition of MDR1 induction by Ara C (25 μM): completely abrogate induction of MDR1 gene expression

## O=C([O-])c1ccccc1O.[Na+] [sodium salicylate]
[4]; inhibitor 20 mM
  inhibition of MDR1 induction by Adriamycin (2 μM): completely abrogate induction of MDR1 gene expression
  inhibition of MDR1 induction by Ara C (25 μM): completely abrogate induction of MDR1 gene expression; also recorded: complete suppression of AraC-induced MDR1 expression

## C/C=C(/C)C(=O)O[C@H]1C(C)=C2[C@H]([C@@H]1OC(=O)CCCCCCC)[C@@](C)(OC(C)=O)C[C@H](OC(=O)CCC)[C@@]1(O)[C@H]2OC(=O)[C@@]1(C)O [thapsigargin]
[1]; 10 μg/mL
  MDR1 expression (RT-PCR): capable of inducing MDR1 gene expression; also recorded: a clear MDR1-specific band was detected

## neomycin sulfate
[6]; 10 mM neomycin sulfate
  inhibition of Ara-C induced MDR1 expression: inhibit Ara-C induced MDR1 expression; also recorded: completely prevent cytotoxic drug and PKC agonist induction of MDR1 expression
[3]; 10 mM
  MRP expression: capable of inhibiting MRP expression; also recorded: strongly inhibited
[3]; 10 mM, 10 h
  Inhibition of MRP expression: ++++
